Article PMC11024016 (Pharmaceutical Research, 2024)

Columns and labels:
[1] = test system: Ser139-phosphorylated human H2AX (γhH2AX) in the tumor; assay: DNA damage in tumor (γH2AX) of ES-2 tumor-bearing mice; assay type: in vivo; conditions: TPT 2 mg/kg/day for 5 consecutive days
Description: Mice in the TPT group were euthanized at 3 and 24 h after each dosing and 3, 5, and 7 days after the last dosing (n = 3). Samples were also harvested at 0.5 h after the first and last TPT dose (n = 3). Mice in the vehicle control group were administered sucrose/histidine buffer intravenously and were euthanized at 3 h, 3, 7, and 11 days post-dosing (n = 2 or 3). The levels of Ser139-phosphorylated human H2AX (γhH2AX) and total hH2AX in the tumor, as well as Ser139-phosphorylated mouse H2AX (γmH2AX) and total mH2AX in mouse bone marrow, were quantified using a previously established method.

[2] = Pharmacokinetics of unencapsulated topotecan in plasma, tumor and BM-ISF of ES-2 tumor bearing mice; assay type: in vivo, BALB/c nude mice; conditions: for AUC(0-inf) / Cmax / MRT / half-life: BALB/c nude, mouse, iv
Description: (§1) Sucrose/histidine buffer and saline (Otsuka Pharmaceutical Factory, Tokushima, Japan) were used as the diluent for FF-10850 and TPT, respectively. After blood sample collection, mice were euthanized at the corresponding time points, and tumor and bone marrow tissues were collected. Plasma was obtained by centrifuging the blood samples at 800 × g for 15 min at 4 °C. Tumor tissues, placed on ice, were minced into fine pieces with scissors. Bone marrow tissues were harvested from the femur and tibia. After cutting the ends, the bones were placed in a microtube and centrifuged at 1,200 × g for 1 min at 4 °C. Unencapsulated topotecan was immediately separated from the plasma and tissue samples and processed.
For the separation of unencapsulated topotecan in plasma, plasma samples diluted with PBS were ultracentrifuged at 200,000 × g for 1 h at 4 °C to precipitate the liposomes. The supernatants were collected as samples for measuring unencapsulated topotecan in plasma. To separate unencapsulated topotecan in tumor tissues, the tissues were minced as described and homogenized in PBS containing topotecan-d6 as an internal standard (125 mg tissue/mL PBS), with zirconia balls using Micro Smash MS-100R (Tomy Seiko, Tokyo, Japan). The homogenate was then ultracentrifuged at 200,000 × g for 1 h at 4 °C, and the supernatants were collected as samples for measuring unencapsulated topotecan in the tumor tissue. For the separation of unencapsulated topotecan in BM-ISF, a bone marrow tissue suspension was prepared by adding PBS containing topoteacan-d6 to the tissue (25 mg tissue/mL PBS) and suspending it by pipetting. After removing cellular components from the suspension by centrifugation at 1,200 × g for 3 min at 4 °C, the supernatant was collected as the BM-ISF sample. These samples were ultracentrifuged at 200,000 × g for 1 h at 4 °C, and the supernatants were collected to measure unencapsulated topotecan in the BM-ISF.
(§2) To prepare the samples, methanol with 0.1% formic acid plus topotecan-d6 was added to plasma samples, while methanol with 0.1% formic acid was used for tumor and BM-ISF samples. The samples were thoroughly mixed and centrifuged at 11,300 × g for 3 min. The supernatants were added to an equal volume of water with 0.1% formic acid, and the mixture was injected into the liquid chromatographic–triple quadrupole mass spectrometric (LC–MS/MS) system. The ultra-performance liquid chromatography (UPLC) conditions for topotecan analysis were as follows: system, ACQUITY UPLC (Waters, Milford, MA); column, ACQUITY UPLC BEH C18 Column (1.7 µm, 2.1 mm × 50 mm, Waters); mobile phase A, 0.1% formic acid; mobile phase B, methanol with 0.1% formic acid, gradient (initial to 2.0 min, linear increase from 20 to 50% of B; 2.0 to 3.0 min, 95% B, and 3.0 to 4.0 min, 20% B); flow rate, 0.4 mL/min; column temperature, 40 °C. A Triple Quad 5500 (AB Sciex, Framingham, MA) mass spectrometer equipped with Analyst software (AB Sciex) and positive ion electrospray ionization in a multiple reaction monitoring (MRM) mode were used. Quantification was performed using MRM with the transitions of m/z at 422.0 → 377.1 for topotecan and 428.1 → 377.1 for topotecan-d6.
(§3) Pharmacokinetic parameters, including half-life (T1/2), initial concentration at t = 0 (C0), the area under the concentration versus time curves from 0 to infinity (AUCinf), clearance (CL), mean residence time (MRT), and the volume of distribution (Vd) of total and unencapsulated topotecan in plasma, tumor tissue, and BM-ISF were analyzed using noncompartmental analysis with Phoenix WinNonlin version 8.2 pharmacokinetic software (Certara, Princeton, NJ). The AUCs were calculated using the linear up/log down rule.

[3] = Maximum tolerated dose of TPT in mice; conditions: mouse, in vivo, intravenous, 5 consecutive days, authors' previous study (data not shown)
[4] = Pharmacokinetics of total topotecan in plasma, tumor and BM-ISF of ES-2 tumor bearing mice; assay type: in vivo, BALB/c nude mice; conditions: single i.v. 2 mg/kg
Description: as §1, §2, §3

[5] = unencapsulated topotecan, BM-ISF, single i.v. 2 mg/kg, ES-2 tumor bearing mice
[6] = unencapsulated topotecan, plasma, single i.v. 2 mg/kg, ES-2 tumor bearing mice
[7] = unencapsulated topotecan, tumor, single i.v. 2 mg/kg, ES-2 tumor bearing mice
[8] = BALB/c nude, mouse, BM-ISF (bone marrow interstitial fluid), iv, BM-ISF, ES-2 tumor bearing mice
[9] = BALB/c nude, mouse, iv, plasma, ES-2 tumor bearing mice
[10] = BALB/c nude, mouse, iv, tumor, ES-2 tumor bearing mice

CC[C@@]1(O)C(=O)OCc2c1cc1n(c2=O)Cc2cc3c(CN(C)C)c(O)ccc3nc2-1 [TPT, Topotecan]
human γH2AX levels in the tumor (DNA damage) ([1]; FF-10850 single i.v. 2 mg/kg): comparable DNA damage | time γH2AX levels remained elevated in tumor after each dose [1]: at least 24 h | AUC(0-inf) [2, 5]: 822 ng·h/mL | Cmax [2, 5]: 1700 ng/mL | MRT [2, 5]: 36.4 min | half-life [2, 5]: 43.7 min | AUC(0-inf) [2, 6]: 97.3 ng·h/mL | Cmax [2, 6]: 198 ng/mL | MRT [2, 6]: 34.6 min | half-life [2, 6]: 26.3 min | Cmax [2, 7]: 646 ng/g | MRT [2, 7]: 62.4 min | half-life [2, 7]: 58.3 min | difference between total and unencapsulated topotecan AUCs ([2]; in plasma and each tissue): ≤ 1.5 fold | AUCinf ratio (Tumor/BM-ISF) ([2]; unencapsulated topotecan, single i.v. 2 mg/kg, ES-2 tumor bearing mice): 0.833 | AUCinf [2, 7]: 684 ng∙h/g tissue | MTD at 5 days [3]: 2 mg/kg/day | AUC(0-inf) [4, 8]: 862 ng·h/mL | Cmax [4, 8]: 1710 ng/mL | MRT [4, 8]: 39.5 min | half-life ([4]; BALB/c nude, mouse, iv, BM-ISF (bone marrow interstitial fluid), ES-2 tumor bearing mice): 41.4 min | AUC(0-inf) [4, 9]: 140 ng·h/mL | C0 [4, 9]: 406 ng/mL | MRT [4, 9]: 23.3 min | Vd [4, 9]: 5.87 L/kg | clearance [4, 9]: 238 mL/min/kg | half-life [4, 9]: 23.9 min | Cmax [4, 10]: 546 ng/g | MRT [4, 10]: 61.2 min | half-life [4, 10]: 55.7 min | AUCinf in BM-ISF relative to that in plasma [4]: 6 times | AUCinf ratio (Tumor/BM-ISF) ([4]; ES-2 tumor bearing mice): 0.675 | AUCinf ([4]; tumor, ES-2 tumor bearing mice): 582 ng∙h/g tissue
